Structures can show the parent of a compound that is named as a salt.
B1: Amivantamab: an EGFR×cMET bispecific antibody construct (antibody, chains of the INN, looked up, V domains shown)
VH: QVQLVESGGGVVQPGRSLRLSCAASGFTFSTYGMHWVRQAPGKGLEWVAVIWDDGSYKYYGDSVKGRFTISRDNSKNTLYLQMNSLRAEDTAVYYCARDGITMVRGVMKDYFDYWGQGTLVTVSS
VL: AIQLTQSPSSLSASVGDRVTITCRASQDISSALVWYQQKPGKAPKLLIYDASSLESGVPSRFSGSESGTDFTLTISSLQPEDFATYYCQQFNSYPLTFGGGTKVEIK
VH2: QVQLVQSGAEVKKPGASVKVSCETSGYTFTSYGISWVRQAPGHGLEWMGWISAYNGYTNYAQKLQGRVTMTTDTSTSTAYMELRSLRSDDTAVYYCARDLRGTNYFDYWGQGTLVTVSS
VL2: DIQMTQSPSSVSASVGDRVTITCRASQGISNWLAWFQHKPGKAPKLLIYAASSLLSGVPSRFSGSGSGTDFTLTISSLQPEDFATYYCQQANSFPITFGQGTRLEIK

Legend:
H1975-NRP1 OE = H1975-NRP1 OE (NRP1-overexpressing) xenograft model; settings: 3 mg/kg Osimertinib
Description: (§2) In this example, a modified version of the H1975 xenograft model was used in which the tumor cells were engineered to overexpress NRP1.

H1975 = H1975 (Osimertinib-sensitive, parental) xenograft mouse model; type: in vivo; settings: 3 mg/kg Osimertinib
Description: as §2

H1975-HGF = H1975-HGF (HGF-overexpressing) xenograft model; type: in vivo, mouse; settings: for tumor volume over time (FIG. 6A): first set, Panitumumab 5 mg/kg, EGFR degrader 6.87 mg/kg, Amivantamab 5.05 mg/kg i.p. BIW, Osimertinib 3 mg/kg i.p. QD; for tumor volume over time (FIG. 6B): second set, Osimertinib 10 mg/kg i.p. QD, Crizotinib 20 mg/kg i.p. QD, EGFR degrader 15 mg/kg i.p. QW
Protocol: (§1) The H1975-HGF cell line was prepared by recombinantly engineering the H1975 cell line to express HGF by standard methods. Thus, the H1975-HGF xenograft model represents a dual activation model in which both the EGFR and cMET pathways are constitutively activated.

H1975-OR = test: Osimertinib-resistant mouse xenograft model (H1975-OR); type: in vivo; settings: Osimertinib dose of 3 mg/kg
Description: Panitumumab is a fully humanized anti-EGFR monoclonal antibody, which binds to EGFR and block the EGFR signaling. Osimertinib is an EGFR tyrosine kinase inhibitor.

HGF/cMET pathway = HGF/cMET pathway inhibition in H1975 cells; type: cell-based; settings: data not shown
Protocol: as §1

Molecule | tumor response (H1975-NRP1 OE) | tumor response (H1975) | tumor volume over time (FIG. 6A) (H1975-HGF) | tumor volume over time (FIG. 6B) (H1975-HGF) | anti-tumor activity (H1975-OR) | cMET pathway signaling (HGF/cMET pathway) | cMET degradation (HGF/cMET pathway)
C=CC(=O)Nc1cc(Nc2nccc(-c3cn(C)c4ccccc34)n2)c(OC)cc1N(C)CCN(C)C [Osimertinib, N-(2-{2-dimethylaminoethyl-methylamino}-4-methoxy-5-{[4-(1-methylindol-3-yl)pyrindin-2-yl]amino}phenyl)prop-2-enamide mesylate salt] | significant tumor progression | strong and persistent tumor regression | exhibited resistance | did not prevent tumor growth over time | did not show anti-tumor activity | – | –
C[C@@H](Oc1cc(-c2cnn(C3CCNCC3)c2)cnc1N)c1c(Cl)ccc(F)c1Cl [Crizotinib] | – | – | – | limited efficacy | – | blocked cMET pathway signaling | –
Panitumumab: fully humanized anti-EGFR monoclonal antibody, which binds to EGFR and block the EGFR signaling | – | – | exhibited resistance | – | – | – | –
B1 | – | – | – | – | – | blocked cMET pathway signaling | led to cMET degradation

Reference: patent US20260199505A1, “COMBINATION THERAPY COMPRISING BISPECIFIC ANTIBODIES COMPRISING AN NRP1 BINDING DOMAIN” (Pinetree Therapeutics, Inc., priority 2022, published 2026)
